According to patent US6069167A, “Use of antioxidant agents to treat cholestatic liver disease” (priority 1997, dated 2000):

Tested on: hepatic toxicity (liver)
Assay: Dose response of intravenous TCDC and hepatic toxicity (serum AST, ALT, bilirubin, alkaline phosphatase)
Type: in vivo, male Sprague-Dawley rats
Conditions: for Serum ALT / Serum AST: mean ± SEM, n = 4
Excerpt: Young adult male Sprague-Dawley rats (150-180 gram weight) purchased from Sasco, Inc. (Omaha, Nebr.) were fed Purina Lab Chow (Ralston Purina Co., Chicago, Ill.) ad libitum for 2-3 weeks and housed in polyethylene cages with stainless steel tops on a 12-hour light-dark cycle. All rats received humane care in compliance with the guidelines of the Animal Use in Research Committee of the University of Colorado Health Sciences Center. Rats were then randomly assigned (4-5 per group) to receive 0 (vehicle only), 5, 10, or 20 μmol of taurochenodeoxycholic acid (TCDC)/100 gram body weight. TCDC is a conjugate of the bile acid most implicated in cholestatic liver injury9,11,12. TCDC was solubilized in 5% dextrose, 10% BSA, and 0.45% normal saline. TCDC was administered while rats were under light methoxyflurane anesthesia as an intravenous bolus of the desired dose in 1 to 2 minutes through the tail vein. TCDC dosing was performed between 7 and 9 am. Rats recovered from the injection uneventfully and blood was obtained at 0, 4, 8, 12 and 24 hours after the injection for determination of AST, ALT total bilirubin and alkaline phosphatase by an automated chemical analyzer (Hitachi 747 Chemical Analyzer).

[1] = i.v. bolus TCDC in rats, data not shown
[2] = i.v. bolus TCDC in rats, dose-dependent

With C[C@H](CCC(=O)NCCS(=O)(=O)O)[C@H]1CC[C@H]2[C@@H]3[C@H](O)C[C@@H]4C[C@H](O)CC[C@]4(C)[C@H]3CC[C@]12C [TCDC, taurochenodeoxycholic acid] as the compound, how does the “Serum ALT” value (TCDC dose 5 i.v., 0 h) read?
The value was 52 ± 6 IU/L.

What about the “Serum AST” value (TCDC dose 5 i.v., 0 h) of the same compound?
Its value is 73 ± 9 IU/L.

And the “Serum ALT” value (TCDC dose 5 i.v., 4 h)?
The value was 92 ± 23 IU/L.

And the “Serum AST” value (TCDC dose 5 i.v., 4 h)?
The value was 121 ± 24 IU/L.

What about the “Serum ALT” value (TCDC dose 5 i.v., 8 h) of the same compound?
Its value is 88 ± 12 IU/L.

And the “Serum AST” value (TCDC dose 5 i.v., 8 h)?
The value was 110 ± 12 IU/L.

What about the “Serum ALT” value (TCDC dose 5 i.v., 12 h) of the same compound?
The value was 70 ± 7 IU/L.

And the “Serum AST” value (TCDC dose 5 i.v., 12 h)?
The value was 105 ± 12 IU/L.

What about the “Serum ALT” value (TCDC dose 5 i.v., 24 h) of the same compound?
Its value is 72 ± 7 IU/L.

And the “Serum AST” value (TCDC dose 5 i.v., 24 h)?
The value was 89 ± 3.5 IU/L.

What about the “Serum ALT” value (TCDC dose 10 i.v., 0 h) of the same compound?
Its value is 53 ± 3 IU/L.

What about the “Serum AST” value (TCDC dose 10 i.v., 0 h) of the same compound?
Its value is 92 ± 8 IU/L.

And the “Serum ALT” value (TCDC dose 10 i.v., 4 h)?
The value was 1855 ± 701 IU/L.

And the “Serum AST” value (TCDC dose 10 i.v., 4 h)?
The value was 3679 ± 1105 IU/L.

And the “Serum ALT” value (TCDC dose 10 i.v., 8 h)?
Its value is 1963 ± 701 IU/L.

What about the “Serum AST” value (TCDC dose 10 i.v., 8 h) of the same compound?
Its value is 2233 ± 1906 IU/L.

What about the “Serum ALT” value (TCDC dose 10 i.v., 12 h) of the same compound?
The value was 492 ± 291 IU/L.

What about the “Serum AST” value (TCDC dose 10 i.v., 12 h) of the same compound?
The value was 605 ± 249 IU/L.

What about the “Serum ALT” value (TCDC dose 10 i.v., 24 h) of the same compound?
Its value is 198 ± 82 IU/L.

What about the “Serum AST” value (TCDC dose 10 i.v., 24 h) of the same compound?
Its value is 328 ± 82 IU/L.

What about the “Serum ALT” value (TCDC dose 20 i.v., 0 h) of the same compound?
The value was 64 ± 9 IU/L.

What about the “Serum AST” value (TCDC dose 20 i.v., 0 h) of the same compound?
The value was 70 ± 6 IU/L.

What about the “Serum ALT” value (TCDC dose 20 i.v., 4 h) of the same compound?
Its value is 1712 ± 554 IU/L.

What about the “Serum AST” value (TCDC dose 20 i.v., 4 h) of the same compound?
The value was 1456 ± 748 IU/L.

And the “Serum ALT” value (TCDC dose 20 i.v., 8 h)?
The value was 1238 ± 257 IU/L.

And the “Serum AST” value (TCDC dose 20 i.v., 8 h)?
Its value is 2057 ± 939 IU/L.

What about the “Serum ALT” value (TCDC dose 20 i.v., 12 h) of the same compound?
Its value is 851 ± 167 IU/L.

What about the “Serum AST” value (TCDC dose 20 i.v., 12 h) of the same compound?
The value was 1282 ± 375 IU/L.

And the “Serum ALT” value (TCDC dose 20 i.v., 24 h)?
The value was 362 ± 75 IU/L.

What about the “Serum AST” value (TCDC dose 20 i.v., 24 h) of the same compound?
Its value is 399 ± 41 IU/L.

And the “Time of peak serum AST and ALT after injection” value (i.v. bolus TCDC in rats)?
Its value is 4 h.

And the “Serum alkaline phosphatase, change” value [1]?
The value was “no significant changes”.

And the “Total serum bilirubin, change” value [1]?
Its value is “no significant changes”.

And the “Serum ALT concentration, change” value [2]?
Its value is “significant rise”.

And the “Serum AST concentration, change” value [2]?
Its value is “significant rise”.
